Measured values: patent publication US6358885B1, “Substituted phenylheterocyclic herbicides” (Mississippi State University, priority 1992, dated 2002)

Legend:
Experiment in all cases: Test B preemergence/postemergence greenhouse plant response rating 0 to 10
[1] = test system: crabgrass; type: in vivo, Digitaria spp.; details: for Plant response rating, Crabgrass: 0 to 10 scale
Outline: (§1)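 Postemergence treatment of plants two to eighteen cm tall ran alongside preemergence treatment of planted seed, each using compound in a non-phytotoxic solvent.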

[2] = test system: velvetleaf; type: in vivo, Abutilon theophrasti; details: for Plant response rating, Velvetleaf: 0 to 10 scale
Outline: as §1

[3] = test system: soybean; type: in vivo, Glycine max; details: for Plant response rating, Soybean: 0 to 10 scale
Outline: as §1

[4] = test system: giant foxtail; type: in vivo, Setaria faberii; details: for Plant response rating, Giant foxtail: 0 to 10 scale
Outline: as §1

[5] = test system: bedstraw; type: in vivo, Galium aparine; details: for Plant response rating, Bedstraw: 0 to 10 scale
Outline: as §1

[6] = test system: lambsquarters; type: in vivo, Chenopodium album; details: for Plant response rating, Lambsquarter: 0 to 10 scale
Outline: as §1

[7] = test system: cheatgrass; type: in vivo, Bromus secalinus; details: for Plant response rating, Cheatgrass: 0 to 10 scale
Outline: as §1

[8] = test system: rice; type: in vivo, Oryza sativa; details: for Plant response rating, Rice: 0 to 10 scale
Outline: as §1

[9] = test system: purple nutsedge; type: in vivo, Cyperus rotundus; details: for Plant response rating, Nutsedge: 0 to 10 scale
Outline: as §1

[10] = test system: rape; type: in vivo, Brassica napus; details: for Plant response rating, Rape: 0 to 10 scale
Outline: as §1

[11] = test system: sugar beet; type: in vivo, Beta vulgaris; details: for Plant response rating, Sugar beet: 0 to 10 scale
Outline: as §1

[12] = test system: cocklebur; type: in vivo, Xanthium pensylvanicum; details: for Plant response rating, Cocklebur: 0 to 10 scale
Outline: as §1

[13] = test system: cotton; type: in vivo, Gossypium hirsutum; details: for Plant response rating, Cotton: 0 to 10 scale
Outline: as §1

[14] = test system: chickweed; type: in vivo, Stellaria media; details: for Plant response rating, Chickweed: 0 to 10 scale
Outline: as §1

[15] = test system: sorghum; type: in vivo, Sorghum bicolor; details: for Plant response rating, Sorghum: 0 to 10 scale
Outline: as §1

[16] = test system: corn; type: in vivo, Zea mays; details: for Plant response rating, Corn: 0 to 10 scale
Outline: as §1

[17] = test system: wheat; type: in vivo, Triticum aestivum; details: for Plant response rating, Wheat: 0 to 10 scale
Outline: as §1

[18] = test system: wild oat; type: in vivo, Avena fatua; details: for Plant response rating, Wild oat: 0 to 10 scale
Outline: as §1

[19] = test system: morningglory; type: in vivo, Ipomoea hederacea; details: for Plant response rating, Morningglory: 0 to 10 scale
Outline: as §1

[20] = test system: blackgrass; type: in vivo, Alopecurus myosuroides; details: for Plant response rating, Blackgrass: 0 to 10 scale
Outline: as §1

[21] = test system: barley; type: in vivo, Hordeum vulgare; details: for Plant response rating, Barley: 0 to 10 scale
Outline: as §1

[22] = test system: barnyardgrass; type: in vivo, Echinochloa crus-galli; details: for Plant response rating, Barnyardgrass: 0 to 10 scale
Outline: as §1

[23] = test system: wild buckwheat; type: in vivo, Polygonum convolvulus; details: for Plant response rating, Wild buckwheat: 0 to 10 scale
Outline: as §1

CCOC(=O)c1cc(-c2nn3c(c2Cl)CCCC3)c(F)cc1Cl [Compound 78]
5: Plant response rating, Crabgrass ([1]; Rate 200 g/ha, POSTEMERGENCE) | Plant response rating, Wild oat ([18]; Rate 200 g/ha, POSTEMERGENCE) | Plant response rating, Barley ([21]; Rate 200 g/ha, POSTEMERGENCE)
6: Plant response rating, Giant foxtail ([4]; Rate 200 g/ha, POSTEMERGENCE) | Plant response rating, Bedstraw ([5]; POSTEMERGENCE, Rate 50 g/ha) | Plant response rating, Rice ([8]; Rate 200 g/ha, POSTEMERGENCE) | Plant response rating, Chickweed ([14]; POSTEMERGENCE, Rate 50 g/ha) | Plant response rating, Chickweed ([14]; PREEMERGENCE, Rate 50 g/ha) | Plant response rating (0 to 10 scale), Wild oat ([18]; PREEMERGENCE, Rate 200 g/ha) | Plant response rating (0 to 10 scale), Barnyardgrass ([22]; PREEMERGENCE, Rate 200 g/ha)
0: Plant response rating, Soybean ([3]; PREEMERGENCE, Rate 50 g/ha) | Plant response rating, Rice ([8]; PREEMERGENCE, Rate 50 g/ha) | Plant response rating, Nutsedge ([9]; PREEMERGENCE, Rate 50 g/ha) | Plant response rating (0 to 10 scale), Nutsedge ([9]; PREEMERGENCE, Rate 200 g/ha) | Plant response rating, Cocklebur ([12]; PREEMERGENCE, Rate 50 g/ha) | Plant response rating (0 to 10 scale), Cocklebur ([12]; PREEMERGENCE, Rate 200 g/ha) | Plant response rating, Cotton ([13]; PREEMERGENCE, Rate 50 g/ha) | Plant response rating, Sorghum ([15]; PREEMERGENCE, Rate 50 g/ha) | Plant response rating, Corn ([16]; PREEMERGENCE, Rate 50 g/ha) | Plant response rating (0 to 10 scale), Corn ([16]; PREEMERGENCE, Rate 200 g/ha) | Plant response rating, Morningglory ([19]; PREEMERGENCE, Rate 50 g/ha) | Plant response rating (0 to 10 scale), Barley ([21]; PREEMERGENCE, Rate 200 g/ha)
4: Plant response rating, Crabgrass ([1]; POSTEMERGENCE, Rate 50 g/ha) | Plant response rating, Giant foxtail ([4]; POSTEMERGENCE, Rate 50 g/ha) | Plant response rating (0 to 10 scale), Cheatgrass ([7]; PREEMERGENCE, Rate 200 g/ha) | Plant response rating, Rape ([10]; PREEMERGENCE, Rate 50 g/ha) | Plant response rating, Sorghum ([15]; POSTEMERGENCE, Rate 50 g/ha) | Plant response rating (0 to 10 scale), Wheat ([17]; PREEMERGENCE, Rate 200 g/ha) | Plant response rating, Blackgrass ([20]; POSTEMERGENCE, Rate 50 g/ha) | Plant response rating, Blackgrass ([20]; PREEMERGENCE, Rate 50 g/ha)
8: Plant response rating (0 to 10 scale), Crabgrass ([1]; PREEMERGENCE, Rate 200 g/ha) | Plant response rating, Rape ([10]; POSTEMERGENCE, Rate 50 g/ha) | Plant response rating, Cocklebur ([12]; POSTEMERGENCE, Rate 50 g/ha) | Plant response rating (0 to 10 scale), Chickweed ([14]; PREEMERGENCE, Rate 200 g/ha) | Plant response rating, Barnyardgrass ([22]; POSTEMERGENCE, Rate 50 g/ha)
2: Plant response rating, Crabgrass ([1]; PREEMERGENCE, Rate 50 g/ha) | Plant response rating, Giant foxtail ([4]; PREEMERGENCE, Rate 50 g/ha) | Plant response rating, Bedstraw ([5]; PREEMERGENCE, Rate 50 g/ha) | Plant response rating, Cheatgrass ([7]; POSTEMERGENCE, Rate 50 g/ha) | Plant response rating, Cheatgrass ([7]; PREEMERGENCE, Rate 50 g/ha) | Plant response rating (0 to 10 scale), Rice ([8]; PREEMERGENCE, Rate 200 g/ha) | Plant response rating, Nutsedge ([9]; Rate 200 g/ha, POSTEMERGENCE) | Plant response rating (0 to 10 scale), Cotton ([13]; PREEMERGENCE, Rate 200 g/ha) | Plant response rating, Barley ([21]; PREEMERGENCE, Rate 50 g/ha) | Plant response rating, Barnyardgrass ([22]; PREEMERGENCE, Rate 50 g/ha)
3: Plant response rating, Rice ([8]; POSTEMERGENCE, Rate 50 g/ha) | Plant response rating (0 to 10 scale), Sorghum ([15]; PREEMERGENCE, Rate 200 g/ha) | Plant response rating, Wheat ([17]; PREEMERGENCE, Rate 50 g/ha) | Plant response rating, Wild oat ([18]; POSTEMERGENCE, Rate 50 g/ha) | Plant response rating, Wild oat ([18]; PREEMERGENCE, Rate 50 g/ha) | Plant response rating, Barley ([21]; POSTEMERGENCE, Rate 50 g/ha)
1: Plant response rating (0 to 10 scale), Soybean ([3]; PREEMERGENCE, Rate 200 g/ha) | Plant response rating, Nutsedge ([9]; POSTEMERGENCE, Rate 50 g/ha)
7: Plant response rating, Cheatgrass ([7]; Rate 200 g/ha, POSTEMERGENCE) | Plant response rating, Sorghum ([15]; Rate 200 g/ha, POSTEMERGENCE) | Plant response rating, Corn ([16]; POSTEMERGENCE, Rate 50 g/ha) | Plant response rating, Wheat ([17]; Rate 200 g/ha, POSTEMERGENCE) | Plant response rating (0 to 10 scale), Blackgrass ([20]; PREEMERGENCE, Rate 200 g/ha) | Plant response rating, Blackgrass ([20]; Rate 200 g/ha, POSTEMERGENCE)
10: Plant response rating, Velvetleaf ([2]; POSTEMERGENCE, Rate 50 g/ha) | Plant response rating, Velvetleaf ([2]; PREEMERGENCE, Rate 50 g/ha) | Plant response rating (0 to 10 scale), Velvetleaf ([2]; PREEMERGENCE, Rate 200 g/ha) | Plant response rating, Velvetleaf ([2]; Rate 200 g/ha, POSTEMERGENCE) | Plant response rating, Soybean ([3]; POSTEMERGENCE, Rate 50 g/ha) | Plant response rating, Lambsquarter ([6]; POSTEMERGENCE, Rate 50 g/ha) | Plant response rating, Lambsquarter ([6]; PREEMERGENCE, Rate 50 g/ha) | Plant response rating (0 to 10 scale), Lambsquarter ([6]; PREEMERGENCE, Rate 200 g/ha) | Plant response rating, Lambsquarter ([6]; Rate 200 g/ha, POSTEMERGENCE) | Plant response rating, Rape ([10]; Rate 200 g/ha, POSTEMERGENCE) | Plant response rating, Sugar beet ([11]; POSTEMERGENCE, Rate 50 g/ha) | Plant response rating (0 to 10 scale), Sugar beet ([11]; PREEMERGENCE, Rate 200 g/ha) | Plant response rating, Sugar beet ([11]; Rate 200 g/ha, POSTEMERGENCE) | Plant response rating, Cocklebur ([12]; Rate 200 g/ha, POSTEMERGENCE) | Plant response rating, Cotton ([13]; Rate 200 g/ha, POSTEMERGENCE) | Plant response rating, Chickweed ([14]; Rate 200 g/ha, POSTEMERGENCE) | Plant response rating, Morningglory ([19]; POSTEMERGENCE, Rate 50 g/ha) | Plant response rating (0 to 10 scale), Morningglory ([19]; PREEMERGENCE, Rate 200 g/ha) | Plant response rating, Morningglory ([19]; Rate 200 g/ha, POSTEMERGENCE) | Plant response rating, Wild buckwheat ([23]; POSTEMERGENCE, Rate 50 g/ha) | Plant response rating (0 to 10 scale), Wild buckwheat ([23]; PREEMERGENCE, Rate 200 g/ha) | Plant response rating, Wild buckwheat ([23]; Rate 200 g/ha, POSTEMERGENCE)
9: Plant response rating, Soybean ([3]; Rate 200 g/ha, POSTEMERGENCE) | Plant response rating (0 to 10 scale), Giant foxtail ([4]; PREEMERGENCE, Rate 200 g/ha) | Plant response rating (0 to 10 scale), Bedstraw ([5]; PREEMERGENCE, Rate 200 g/ha) | Plant response rating, Bedstraw ([5]; Rate 200 g/ha, POSTEMERGENCE) | Plant response rating (0 to 10 scale), Rape ([10]; PREEMERGENCE, Rate 200 g/ha) | Plant response rating, Sugar beet ([11]; PREEMERGENCE, Rate 50 g/ha) | Plant response rating, Cotton ([13]; POSTEMERGENCE, Rate 50 g/ha) | Plant response rating, Corn ([16]; Rate 200 g/ha, POSTEMERGENCE) | Plant response rating, Barnyardgrass ([22]; Rate 200 g/ha, POSTEMERGENCE) | Plant response rating, Wild buckwheat ([23]; PREEMERGENCE, Rate 50 g/ha)
